Test: Western blot analysis for "B" compounds
Format: cell-based
Conditions: read-out: Traditional Western Degradation Potency (DC50)
How it was run: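 Target protein levels given as relative mean band intensity over GAPDH from scanned immunoblots. Lysates of treated cells in RIPA buffer, equalized by BCA, separated on 10% gels and transferred to PVDF.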

Compound	DC50
O=C1CCC(N2C(=O)c3cc4c(cc3C2=O)CN(CC(=O)N2CCC3(CC2)CC(Oc2ccc([C@@H]5c6ccc(O)cc6CC[C@@H]5c5ccccc5)cc2)C3)C4)C(=O)N1 (stereo partly drawn) [Compound B275, 2-(2,6-dioxopiperidin-3-yl)-6-(2-(2-(4-((1R,2S)-6-hydroxy-2-phenyl-1,2,3,4-tetrahydronaphthalen-1-yl)phenoxy)-7-azaspiro[3.5]nonan-7-yl)-2-oxoethyl)-6,7-dihydropyrrolo[3,4-f]isoindole-1,3(2H,5H)-dione]	> 100 nM
O=C1CCC(N2C(=O)c3cc4c(cc3C2=O)CN(CC(=O)N2CC3(CC(Oc5ccc([C@@H]6c7ccc(O)cc7CC[C@@H]6c6ccccc6)cc5)C3)C2)C4)C(=O)N1 (stereo partly drawn) [Compound B276, 2-(2,6-dioxopiperidin-3-yl)-6-(2-(6-(4-((1R,2S)-6-hydroxy-2-phenyl-1,2,3,4-tetrahydronaphthalen-1-yl)phenoxy)-2-azaspiro[3.3]heptan-2-yl)-2-oxoethyl)-6,7-dihydropyrrolo[3,4-f]isoindole-1,3(2H,5H)-dione]	> 100 nM
O=C1CCC(N2C(=O)c3cc4c(cc3C2=O)CN(C(=O)CN2CCC3(CC2)CC(Oc2ccc([C@@H]5c6ccc(O)cc6CC[C@@H]5c5ccccc5)cc2)C3)C4)C(=O)N1 (stereo partly drawn) [Compound B277, 2-(2,6-dioxopiperidin-3-yl)-6-(2-(2-(4-((1R,2S)-6-hydroxy-2-phenyl-1,2,3,4-tetrahydronaphthalen-1-yl)phenoxy)-7-azaspiro[3.5]nonan-7-yl)acetyl)-6,7-dihydropyrrolo[3,4-f]isoindole-1,3(2H,5H)-dione]	> 100 nM
O=C1CCC(N2C(=O)c3cc4c(cc3C2=O)CN(CC(=O)N2CC3(CCC(Oc5ccc([C@@H]6c7ccc(O)cc7CC[C@@H]6c6ccccc6)cc5)CC3)C2)C4)C(=O)N1 (stereo partly drawn) [Compound B278, 2-(2,6-dioxopiperidin-3-yl)-6-(2-(7-(4-((1R,2S)-6-hydroxy-2-phenyl-1,2,3,4-tetrahydronaphthalen-1-yl)phenoxy)-2-azaspiro[3.5]nonan-2-yl)-2-oxoethyl)-6,7-dihydropyrrolo[3,4-f]isoindole-1,3(2H,5H)-dione]	> 100 nM
O=C1CCC(N2C(=O)c3cc4c(cc3C2=O)CN(CC(=O)N2CCC3(CCC(Oc5ccc([C@@H]6c7ccc(O)cc7CC[C@@H]6c6ccccc6)cc5)CC3)CC2)C4)C(=O)N1 (stereo partly drawn) [Compound B279, 2-(2,6-dioxopiperidin-3-yl)-6-(2-(9-(4-((1R,2S)-6-hydroxy-2-phenyl-1,2,3,4-tetrahydronaphthalen-1-yl)phenoxy)-3-azaspiro[5.5]undecan-3-yl)-2-oxoethyl)-6,7-dihydropyrrolo[3,4-f]isoindole-1,3(2H,5H)-dione]	> 100 nM
O=C1CCC(N2C(=O)c3cc4c(cc3C2=O)CN(C2CCN(C(=O)C3(F)CCN(c5ccc([C@@H]6c7ccc(O)cc7CC[C@@H]6c6ccccc6)cc5)CC3)CC2)C4)C(=O)N1 (stereo partly drawn) [Compound B280, 2-(2,6-dioxopiperidin-3-yl)-6-(1-(4-fluoro-1-(4-((1R,2S)-6-hydroxy-2-phenyl-1,2,3,4-tetrahydronaphthalen-1-yl)phenyl)piperidine-4-carbonyl)piperidin-4-yl)-6,7-dihydropyrrolo[3,4-f]isoindole-1,3(2H,5H)-dione]	> 100 nM
O=C1CCC(N2C(=O)c3cc4c(cc3C2=O)CN(C(=O)[C@H]2CC[C@H](CN3CC(Oc5ccc([C@@H]6c7ccc(O)cc7CC[C@@H]6c6ccccc6)cc5)C3)CC2)C4)C(=O)N1 (stereo partly drawn) [Compound B281, 2-(2,6-dioxopiperidin-3-yl)-6-((1R,4r)-4-((3-(4-((1R,2S)-6-hydroxy-2-phenyl-1,2,3,4-tetrahydronaphthalen-1-yl)phenoxy)azetidin-1-yl)methyl)cyclohexane-1-carbonyl)-6,7-dihydropyrrolo[3,4-f]isoindole-1,3(2H,5H)-dione]	10 to 100 nM
O=C1CCC(N2C(=O)c3cc4c(cc3C2=O)CN(Cc2ccc(N3CCN(c5ccc([C@@H]6c7ccc(O)cc7CC[C@@H]6c6ccccc6)cc5)CC3)nc2)C4)C(=O)N1 (stereo partly drawn) [Compound B282, 2-(2,6-dioxopiperidin-3-yl)-6-((6-(4-(4-((1R,2S)-6-hydroxy-2-phenyl-1,2,3,4-tetrahydronaphthalen-1-yl)phenyl)piperazin-1-yl)pyridin-3-yl)methyl)-6,7-dihydropyrrolo[3,4-f]isoindole-1,3(2H,5H)-dione]	> 100 nM
CC1(C(=O)N2CCC(N3Cc4cc5c(cc4C3)C(=O)N(C3CCC(=O)NC3=O)C5=O)CC2)CCN(c2ccc([C@@H]3c4ccc(O)cc4CC[C@@H]3c3ccccc3)cc2)CC1 (stereo partly drawn) [Compound B283, 2-(2,6-dioxopiperidin-3-yl)-6-(1-(1-(4-((1R,2S)-6-hydroxy-2-phenyl-1,2,3,4-tetrahydronaphthalen-1-yl)phenyl)-4-methylpiperidine-4-carbonyl)piperidin-4-yl)-6,7-dihydropyrrolo[3,4-f]isoindole-1,3(2H,5H)-dione]	> 100 nM
O=C1CCC(N2C(=O)c3cc4c(cc3C2=O)CN(CC(=O)N2CCC(Oc3ccc([C@@H]5c6ccc(O)cc6CC[C@@H]5c5ccccc5)cc3)CC2)C4)C(=O)N1 (stereo partly drawn) [Compound B284, 2-(2,6-dioxopiperidin-3-yl)-6-(2-(4-(4-((1R,2S)-6-hydroxy-2-phenyl-1,2,3,4-tetrahydronaphthalen-1-yl)phenoxy)piperidin-1-yl)-2-oxoethyl)-6,7-dihydropyrrolo[3,4-f]isoindole-1,3(2H,5H)-dione]	> 100 nM
O=C1CCC(N2C(=O)c3cc4c(cc3C2=O)CN(C2CCN(C(=O)[C@H]3C[C@H](Oc5ccc([C@@H]6c7ccc(O)cc7CC[C@@H]6c6ccccc6)cc5)C3)CC2)C4)C(=O)N1 (stereo partly drawn) [Compound B285, 2-(2,6-dioxopiperidin-3-yl)-6-(1-((1R,3r)-3-(4-((1R,2S)-6-hydroxy-2-phenyl-1,2,3,4-tetrahydronaphthalen-1-yl)phenoxy)cyclobutane-1-carbonyl)piperidin-4-yl)-6,7-dihydropyrrolo[3,4-f]isoindole-1,3(2H,5H)-dione]	10 to 100 nM
O=C1CCC(N2Cc3cc4c(cc3C2=O)CN(C(=O)C2CCC(CN3CC(Oc5ccc([C@@H]6c7ccc(O)cc7CC[C@@H]6c6ccccc6)cc5)C3)CC2)C4)C(=O)N1 (stereo partly drawn) [Compound B286, 3-(6-((1R,4r)-4-((3-(4-((1R,2S)-6-hydroxy-2-phenyl-1,2,3,4-tetrahydronaphthalen-1-yl)phenoxy)azetidin-1-yl)methyl)cyclohexane-1-carbonyl)-1-oxo-3,5,6,7-tetrahydropyrrolo[3,4-f]isoindol-2(1H)-yl)piperidine-2,6-dione]	> 100 nM
O=C1CCC(N2C(=O)c3cc4c(cc3C2=O)CN(CC2CCC3(CC2)CCN(C(=O)c2ccc([C@@H]5c6ccc(O)cc6CC[C@@H]5c5ccccc5)cc2)CC3)C4)C(=O)N1 (stereo partly drawn) [Compound B287, 2-(2,6-dioxopiperidin-3-yl)-6-((3-(4-((1R,2S)-6-hydroxy-2-phenyl-1,2,3,4-tetrahydronaphthalen-1-yl)benzoyl)-3-azaspiro[5.5]undecan-9-yl)methyl)-6,7-dihydropyrrolo[3,4-f]isoindole-1,3(2H,5H)-dione]	> 100 nM
O=C1CCC(N2C(=O)c3cc4c(cc3C2=O)CN(CC2CCC3(CC2)CN(C(=O)c2ccc([C@@H]5c6ccc(O)cc6CC[C@@H]5c5ccccc5)cc2)C3)C4)C(=O)N1 (stereo partly drawn) [Compound B288, 2-(2,6-dioxopiperidin-3-yl)-6-((2-(4-((1R,2S)-6-hydroxy-2-phenyl-1,2,3,4-tetrahydronaphthalen-1-yl)benzoyl)-2-azaspiro[3.5]nonan-7-yl)methyl)-6,7-dihydropyrrolo[3,4-f]isoindole-1,3(2H,5H)-dione]	> 100 nM
O=C1CCC(N2C(=O)c3cc4c(cc3C2=O)CN(CC2CC3(CCN(C(=O)c5ccc([C@@H]6c7ccc(O)cc7CC[C@@H]6c6ccccc6)cc5)CC3)C2)C4)C(=O)N1 (stereo partly drawn) [Compound B289, 2-(2,6-dioxopiperidin-3-yl)-6-((7-(4-((1R,2S)-6-hydroxy-2-phenyl-1,2,3,4-tetrahydronaphthalen-1-yl)benzoyl)-7-azaspiro[3.5]nonan-2-yl)methyl)-6,7-dihydropyrrolo[3,4-f]isoindole-1,3(2H,5H)-dione]	> 100 nM
O=C1CCC(N2C(=O)c3cc4c(cc3C2=O)CN(CC(=O)N2CCC3(CC2)CCN(C(=O)c2ccc([C@@H]5c6ccc(O)cc6CC[C@@H]5c5ccccc5)cc2)CC3)C4)C(=O)N1 (stereo partly drawn) [Compound B290, 2-(2,6-dioxopiperidin-3-yl)-6-(2-(9-(4-((1R,2S)-6-hydroxy-2-phenyl-1,2,3,4-tetrahydronaphthalen-1-yl)benzoyl)-3,9-diazaspiro[5.5]undecan-3-yl)-2-oxoethyl)-6,7-dihydropyrrolo[3,4-f]isoindole-1,3(2H,5H)-dione]	> 100 nM
O=C1CCC(N2C(=O)c3cc4c(cc3C2=O)CN(CC(=O)N2CCC3(CC2)CN(C(=O)c2ccc([C@@H]5c6ccc(O)cc6CC[C@@H]5c5ccccc5)cc2)C3)C4)C(=O)N1 (stereo partly drawn) [Compound B291, 2-(2,6-dioxopiperidin-3-yl)-6-(2-(2-(4-((1R,2S)-6-hydroxy-2-phenyl-1,2,3,4-tetrahydronaphthalen-1-yl)benzoyl)-2,7-diazaspiro[3.5]nonan-7-yl)-2-oxoethyl)-6,7-dihydropyrrolo[3,4-f]isoindole-1,3(2H,5H)-dione]	> 100 nM
O=C1CCC(N2C(=O)c3cc4c(cc3C2=O)CN(C2CC3CCC(C2)N3CC2CCN(c3ccc([C@@H]5c6ccc(O)cc6CC[C@@H]5c5ccccc5)cc3)CC2)C4)C(=O)N1 (stereo partly drawn) [Compound B292, 2-(2,6-dioxopiperidin-3-yl)-6-(8-((1-(4-((1R,2S)-6-hydroxy-2-phenyl-1,2,3,4-tetrahydronaphthalen-1-yl)phenyl)piperidin-4-yl)methyl)-8-azabicyclo[3.2.1]octan-3-yl)-6,7-dihydropyrrolo[3,4-f]isoindole-1,3(2H,5H)-dione]	> 100 nM
O=C1CCC(N2C(=O)c3cc4c(cc3C2=O)CN(C[C@H]2CC[C@H](C(=O)N3CC(Oc5ccc([C@@H]6c7ccc(O)cc7CC[C@@H]6c6ccccc6)cc5)C3)CC2)C4)C(=O)N1 (stereo partly drawn) [Compound B293, 2-(2,6-dioxopiperidin-3-yl)-6-(((1R,4r)-4-(3-(4-((1R,2S)-6-hydroxy-2-phenyl-1,2,3,4-tetrahydronaphthalen-1-yl)phenoxy)azetidine-1-carbonyl)cyclohexyl)methyl)-6,7-dihydropyrrolo[3,4-f]isoindole-1,3(2H,5H)-dione]	10 to 100 nM

Reference: US20260028354A1, “TETRAHYDRONAPHTHALENE DERIVATIVES AS ESTROGEN RECEPTOR DEGRADERS” (REGENT OF THE UNIVERSITY OF MICHIGAN, priority 2022, published 2026)
